The supplement of paper PMC11061612

Columns and labels:
Test in all cases: combination Emax (second highest fraction inhibited in the dose matrix, 72 h); higher = more inhibition; extreme values may be limits of the assay
[1] = system: DOV13 (Ovarian Carcinoma)
Outline: (§1)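 Cell lines grown in DMEM/F12 or RPMI with 10% FBS were plated in 1536-well plates and held 24 hours at 37°C, 5% CO2 before 72 hours of exposure to two-drug dose matrices, with DMSO typically at 0.2%. CellTiter-Glo 2.0 luminescence gave viability, which was converted to inhibition. Vehicle wells were set to 0 and blank wells to 1. Combination Emax is the second-highest inhibition in the matrix, and Bliss excess is the observed combination effect minus the expected EA + EB − EA·EB, where EA and EB are the single-agent effects.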

[2] = system: COR-L95 (Small Cell Lung Carcinoma)
Outline: as §1

[3] = system: MFH-ino (Other Solid Carcinomas)
Outline: as §1

SN12C (Kidney Carcinoma) = system: SN12C (Kidney Carcinoma)
Outline: as §1

[4] = system: KARPAS-1106P (B-Cell Non-Hodgkin's Lymphoma)
Outline: as §1

[5] = system: MDA-MB-157 (Breast Carcinoma)
Outline: as §1

[6] = system: TE-5 (Esophageal Squamous Cell Carcinoma)
Outline: as §1

[7] = system: NCI-H1299 (Non-Small Cell Lung Carcinoma)
Outline: as §1

DSH1 (Bladder Carcinoma) = system: DSH1 (Bladder Carcinoma)
Outline: as §1

[8] = system: U-266 (Plasma Cell Myeloma)
Outline: as §1

[9] = system: G-292-Clone-A141B1 (Osteosarcoma)
Outline: as §1

[10] = system: SW1783 (Low Grade Glioma)
Outline: as §1

[11] = system: LS-513 (Colorectal Carcinoma)
Outline: as §1

[12] = system: MDA-MB-231 (Breast Carcinoma)
Outline: as §1

SK-N-FI (Neuroblastoma) = system: SK-N-FI (Neuroblastoma)
Outline: as §1

[13] = system: DB (B-Cell Non-Hodgkin's Lymphoma)
Outline: as §1

[14] = system: IHH-4 (Thyroid Gland Carcinoma)
Outline: as §1

[15] = system: OCI-AML2 (Acute Myeloid Leukemia)
Outline: as §1

NCI-H2595 (Mesothelioma) = system: NCI-H2595 (Mesothelioma)
Outline: as §1

[16] = system: KARPAS-620 (Plasma Cell Myeloma)
Outline: as §1

Row | Compound | combination Emax [1] | combination Emax [2] | combination Emax [3] | combination Emax (SN12C (Kidney Carcinoma)) | combination Emax [4] | combination Emax [5] | combination Emax [6] | combination Emax [7] | combination Emax (DSH1 (Bladder Carcinoma)) | combination Emax [8] | combination Emax [9] | combination Emax [10] | combination Emax [11] | combination Emax [12] | combination Emax (SK-N-FI (Neuroblastoma)) | combination Emax [13] | combination Emax [14] | combination Emax [15] | combination Emax (NCI-H2595 (Mesothelioma)) | combination Emax [16]
1 | Cc1c2c(nn1C)CSCc1cc(n(C)n1)CSc1cc(c3ccccc3c1)OCCCc1c(C(=O)O)n(C)c3c-2c(Cl)ccc13 [AZD5991] + CS(=O)(=O)CCNCc1ccc(-c2ccc3ncnc(Nc4ccc(OCc5cccc(F)c5)c(Cl)c4)c3c2)o1 [Lapatinib] (first compound max 1 µM, 7x7, partner max 10 µM) | 0.185 | 0.177 | 0.234 | 0.249 | 0.893 | 0.883 | 0.308 | 0.301 | 0.991 | 0.845 | 0.264 | 0.165 | 0.822 | 0.263 | 0.562 | 1 | 0.278 | 0.978 | 0.361 | 1
2 | Cc1c2c(nn1C)CSCc1cc(n(C)n1)CSc1cc(c3ccccc3c1)OCCCc1c(C(=O)O)n(C)c3c-2c(Cl)ccc13 [AZD5991] + Nc1ccn([C@@H]2O[C@H](CO)[C@@H](O)C2(F)F)c(=O)n1 [Gemcitabine] (first compound max 1 µM, 7x7, partner max 0.3 µM) | 0.889 | 0.407 | 0.725 | 0.422 | 0.981 | 0.878 | 0.75 | 0.527 | 1 | 0.944 | 0.152 | 0.673 | 0.814 | 0.587 | 0.457 | 1 | 1 | 1 | 0.464 | 1
3 | C[C@@H]1COCCN1c1cc(C2([S@](C)(=N)=O)CC2)nc(-c2ccnc3[nH]ccc23)n1 [AZD6738] + C1CC(C1)(C(=O)[O-])C(=O)[O-].N.N.[Pt+2] [Carboplatin] (first compound max 10 µM, 7x7, partner max 10 µM) | 0.818 | – | 0.468 | 0.222 | 0.658 | 0.889 | 0.541 | 0.508 | 0.725 | 0.316 | 0.328 | 0.447 | 0.727 | 0.576 | 0.601 | 0.435 | 0.773 | 0.951 | 0.275 | 0.399
4 | C[C@@H]1COCCN1c1cc(C2([S@](C)(=N)=O)CC2)nc(-c2ccnc3[nH]ccc23)n1 [AZD6738] + Nc1ccn([C@@H]2O[C@H](CO)[C@@H](O)C2(F)F)c(=O)n1 [Gemcitabine] (first compound max 10 µM, 7x7, partner max 0.3 µM) | 0.965 | 0.459 | 0.716 | 0.779 | 0.926 | 0.925 | 0.666 | 0.841 | 1 | 0.747 | 0.413 | 0.755 | 0.824 | 0.858 | 0.789 | 0.913 | 1 | 1 | 0.374 | 0.763
5 | Cc1cc2ncnn2cc1Nc1ncc2c(n1)n(C1CCOCC1)c(=O)n2C [AZD7648] + COc1cc([C@@H]2c3cc4c(cc3[C@@H](O[C@@H]3O[C@@H]5CO[C@@H](C)O[C@H]5[C@H](O)[C@H]3O)[C@H]3COC(=O)[C@H]23)OCO4)cc(OC)c1O [Etoposide] (first compound max 10 µM, 7x7, partner max 10 µM) | 0.923 | 0.551 | 0.665 | 0.641 | 0.781 | 0.855 | 0.668 | 0.649 | 0.844 | 0.581 | 0.321 | 0.706 | 0.662 | 0.842 | 0.368 | 0.907 | 0.956 | 1 | 0.446 | 0.786
6 | N#Cc1cnc(Nc2cc(NC[C@H]3CNCCO3)c(C(F)(F)F)cn2)cn1 [SRA737] + C=CCn1c(=O)c2cnc(Nc3ccc(N4CCN(C)CC4)cc3)nc2n1-c1cccc(C(C)(C)O)n1 [AZD1775] (first compound max 10 µM, partner max 1 µM) | – | 0.299 | 0.441 | 0.212 | 0.913 | 0.955 | 0.482 | 0.674 | 0.682 | 0.599 | 0.239 | 0.467 | 0.84 | 0.807 | 0.722 | 0.87 | 0.825 | 1 | 0.236 | 0.779
